This note sets out measurements from patent US9029377B2, “Platelet-activating factor receptor antagonists” (Merck Sharp & Dohme Corp., priority 2009, dated 2015).

Sequence of PAFR (P25105 whole entry): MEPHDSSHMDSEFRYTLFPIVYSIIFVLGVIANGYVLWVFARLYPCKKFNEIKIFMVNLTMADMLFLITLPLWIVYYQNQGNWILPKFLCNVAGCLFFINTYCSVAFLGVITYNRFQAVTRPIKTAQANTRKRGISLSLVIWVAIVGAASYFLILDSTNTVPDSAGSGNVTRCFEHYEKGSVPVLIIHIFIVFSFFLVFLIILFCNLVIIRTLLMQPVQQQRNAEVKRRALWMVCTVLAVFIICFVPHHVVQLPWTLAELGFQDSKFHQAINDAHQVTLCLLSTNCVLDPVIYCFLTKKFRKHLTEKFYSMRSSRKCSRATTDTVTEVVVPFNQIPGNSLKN

The experiment addresses PAFR (Homo sapiens, UniProt P25105). As to the kind of experiment: PAF Binding Assay (PAFR binding).
For orientation: IC50 means the concentration at which inhibition is half-maximal. For the compound “3-(2-aminopyrimidin-4-yl)-N-[(1R,5S)-3,3-difluoro-5-(3-methyl-4H-1,2,4-triazol-4-yl)cyclohexyl]-5-(trifluoromethyl)benzenesulfonamide [Compound 9Ab]”, the IC50 was found to be 15 nM.
In the case of `Cc1nnc(C)n1[C@@H]1CCC[C@H](NS(=O)(=O)c2c(C(C)C)cc(C(C)C)cc2C(C)C)C1` [Compound 7d, N-[(1S,3R)-3-(3,5-dimethyl-4H-1,2,4-triazol-4-yl)cyclohexyl]-2,4,6-triisopropylbenzenesulfonamide] it was 9.8 nM; in that of `Cc1nncn1[C@@H]1CCC[C@H](NS(=O)(=O)c2ccc(C(C)C)cc2)C1` [Compound 2Nq, 4-isopropyl-N-[(1S,3R)-3-(3-methyl-4H-1,2,4-triazol-4-yl)cyclohexyl]benzenesulfonamide], 28 nM.
The compound `CCc1cc(-c2ccc(F)c(F)c2)ccc1S(=O)(=O)N[C@H]1CCC[C@@H](n2cnnc2)C1` [Compound 2Aw, 3-ethyl-3′,4′-difluoro-N-[(1S,3R)-3-(4H-1,2,4-triazol-4-yl)cyclohexyl]biphenyl-4-sulfonamide] displayed an IC50 of 24 nM.
Then `C=C(F)F.CCC(F)(F)c1nc(-c2ccc(S(=O)(=O)N[C@H]3CCC[C@@H](n4cnnc4)C3)c(C3CC3)c2)no1` [2 Kd, 2-cyclopropyl-4-[5-(1,1-difluoropropyl)-1,2,4-oxadiazol-3-yl]-N-[(1S,3R)-3-(4H-1,2,4-triazol-4-yl)cyclohexyl]benzenesulfonamide-1,1-difluoroethylene (1:1)], with 8.9 nM; and `O=S(=O)(N[C@H]1CCC[C@@H](n2cnnc2)C1)c1ccc(-c2ccc(OC(F)F)cc2)c(F)c1` [Compound 2Ec, 4′-(difluoromethoxy)-2-fluoro-N-[(1S,3R)-3-(4H-1,2,4-triazol-4-yl)cyclohexyl]biphenyl-4-sulfonamide], with 2.6 nM; and `O=S(=O)(N[C@H]1CCC[C@@H](n2cnnc2)C1)c1cc(-c2ccncc2)cc(C(F)(F)F)c1` [Compound 3An, 3-pyridin-4-yl-N-[(1S,3R)-3-(4H-1,2,4-triazol-4-yl)cyclohexyl]-5-(trifluoromethyl)benzenesulfonamide], with 36 nM.
The compound `CCc1cc(-c2c(C)noc2C)ccc1S(=O)(=O)N[C@H]1CCC[C@@H](n2cnnc2)C1` [Compound 2Az, 4-(3,5-dimethylisoxazol-4-yl)-2-ethyl-N-[(1S,3R)-3-(4H-1,2,4-triazol-4-yl)cyclohexyl]benzenesulfonamide] yielded an IC50 of 48 nM.
`CCc1cc(-c2cccnc2OCC(F)(F)F)cc(S(=O)(=O)N[C@H]2CCC[C@@H](n3cnnc3)C2)c1` [Compound 3Bam, 3-ethyl-N-[(1S,3R)-3-(4H-1,2,4-triazol-4-yl)cyclohexyl]-5-[2-(2,2,2-trifluoroethoxy)pyridin-3-yl]benzenesulfonamide] yielded an IC50 of 9.5 nM. Compared with the last compound, the IC50 is about 5.1-fold lower.
In the case of `O=S(=O)(N[C@H]1CCC[C@@H](n2cnnc2)C1)c1ccc(OCCCC(F)(F)F)cc1` [Compound 2Mac, N-[(1S,3R)-3-(4H-1,2,4-triazol-4-yl)cyclohexyl]-4-(4,4,4-trifluorobutoxy)benzenesulfonamide] it was 8.3 nM; in that of `CCc1cc(-c2ccc(OCC(F)(F)F)nn2)cc(S(=O)(=O)N[C@H]2CCC[C@@H](n3cnnc3)C2)c1` [Compound 3Bay, 3-ethyl-N-[(1S,3R)-3-(4H-1,2,4-triazol-4-yl)cyclohexyl]-5-[6-(2,2,2-trifluoroethoxy)pyridazin-3-yl]benzenesulfonamide], 5.7 nM.
On to `O=S(=O)(N[C@H]1CCC[C@@H](n2cnnc2)C1)c1cc(F)cc(-c2ccccc2)c1` [Compound 3Fa, 5-fluoro-N-[(1S,3R)-3-(4H-1,2,4-triazol-4-yl)cyclohexyl]biphenyl-3-sulfonamide], for which the IC50 is 10 nM.
Regarding `CCc1cc(OCCC(F)(F)F)ccc1S(=O)(=O)N[C@H]1CCC[C@@H](n2cnnc2)C1` [Compound 2Abk, 2-ethyl-N-[(1S,3R)-3-(4H-1,2,4-triazol-4-yl)cyclohexyl]-4-(3,3,3-trifluoropropoxy)benzenesulfonamide], the IC50 amounted to 22 nM. Against the preceding compound, the IC50 is about 2.2-fold higher.
`O=S(=O)(N[C@H]1CCC[C@@H](n2cnnc2)C1)c1ccc(-c2ccc(OCC(F)(F)F)cc2)c(F)c1` [Compound 2Eb, 2-fluoro-N-[(1S,3R)-3-(4H-1,2,4-triazol-4-yl)cyclohexyl]-4′-(2,2,2-trifluoroethoxy)biphenyl-4-sulfonamide] registered an IC50 of 0.7 nM.
In the case of “3-(2-cyclopropylpyrazolo[1,5-a]pyrimidin-7-yl)-N-[(1R,5S)-3,3-difluoro-5-(3-methyl-4H-1,2,4-triazol-4-yl)cyclohexyl]-5-(trifluoromethyl)benzenesulfonamide [Compound 9Af]” it was 5.1 nM.
In turn, `CCCCOc1ccc(S(=O)(=O)N[C@H]2CCC[C@@H](n3cnnc3C3CC3)C2)cc1F` [Compound 2Oaf, 4-butoxy-N-[(1S,3R)-3-(3-cyclopropyl-4H-1,2,4-triazol-4-yl)cyclohexyl]-3-fluorobenzenesulfonamide] gave an IC50 of 1.7 nM.
In the case of `CCc1cc(-c2ccc(OC3CCC3)nc2)ccc1S(=O)(=O)N[C@H]1CCC[C@@H](n2cnnc2)C1` [Compound 2Aaq, 4-[6-(cyclobutyloxy)pyridin-3-yl]-2-ethyl-N-[(1S,3R)-3-(4H-1,2,4-triazol-4-yl)cyclohexyl]benzenesulfonamide] it was 0.8 nM.
In the case of `Cc1nncn1[C@H]1C[C@@H](NS(=O)(=O)c2ccc(-c3ccc(OC(F)(F)F)cc3)c(F)c2)CC(F)(F)C1` [Compound 2Ha, N-[(1R,5S)-3,3-difluoro-5-(3-methyl-4H-1,2,4-triazol-4-yl)cyclohexyl]-2-fluoro-4′-(trifluoromethoxy)biphenyl-4-sulfonamide] it was 1.4 nM; in that of `CCc1cc(-c2ccc(OC)cc2)ccc1S(=O)(=O)N[C@H]1CCC[C@@H](n2cnnc2)C1` [Compound 2Ap, 3-ethyl-4′-methoxy-N-[(1S,3R)-3-(4H-1,2,4-triazol-4-yl)cyclohexyl]biphenyl-4-sulfonamide], 27 nM; in that of “4-(5-cyclopropyl-1,2,4-oxadiazol-3-yl)-N-[(1R,5S)-3,3-difluoro-5-(4H-1,2,4-triazol-4-yl)cyclohexyl]-3-ethylbiphenyl-4-sulfonamide [Compound 2Cy]”, 7.3 nM.
In the case of `O=S(=O)(N[C@H]1CCC[C@@H](n2cnnc2)C1)c1cc(Cl)cc(Cl)c1` [2 Mh, 3,5-dichloro-N-[(1S,3R)-3-(4H-1,2,4-triazol-4-yl)cyclohexyl]benzenesulfonamide] it was 194 nM.
Take `CCCCOc1ccc(S(=O)(=O)N[C@H]2CCC[C@@H](n3cnnc3C3CC3)C2)cc1` [Compound 2Ow, 4-butoxy-N-[(1S,3R)-3-(3-cyclopropyl-4H-1,2,4-triazol-4-yl)cyclohexyl]benzenesulfonamide]: the IC50 was determined as 4.1 nM.
Compound `O=S(=O)(N[C@H]1CCC[C@@H](n2cnnc2)C1)c1ccc(-c2noc(C3CC3)n2)cc1` [Compound 2Ml, 4-(5-cyclopropyl-1,2,4-oxadiazol-3-yl)-N-[(1S,3R)-3-(4H-1,2,4-triazol-4-yl)cyclohexyl]benzenesulfonamide] yielded an IC50 of 243 nM.
In turn, “3-(2-cyclopropylpyrimidin-4-yl)-N-[(1R,5S)-3,3-difluoro-5-(3-methyl-4H-1,2,4-triazol-4-yl)cyclohexyl]-5-(trifluoromethyl)benzenesulfonamide [Compound 9Aa]” came in with an IC50 of 2.2 nM.
Consider `O=S(=O)(N[C@H]1CCC[C@@H](n2cnnc2)C1)c1cc(-c2ccc(O)nc2)cc(C(F)(F)F)c1` [Compound 3Ai, 3-(6-hydroxypyridin-3-yl)-N-[(1S,3R)-3-(4H-1,2,4-triazol-4-yl)cyclohexyl]-5-(trifluoromethyl)benzenesulfonamide], for which the IC50 turned out to be 526 nM.
In the case of `CC(C)Oc1ccc(S(=O)(=O)N[C@H]2CCC[C@@H](n3cnnc3)C2)cc1` [Compound 2Mz, 4-isopropoxy-N-[(1S,3R)-3-(4H-1,2,4-triazol-4-yl)cyclohexyl]benzenesulfonamide] it was 25 nM; in that of `Cc1nncn1[C@H]1C[C@@H](NS(=O)(=O)c2ccc(OCCCCF)c(F)c2)CC(F)(F)C1` [Compound 2Hi, N-[(1R,5S)-3,3-difluoro-5-(3-methyl-4H-1,2,4-triazol-4-yl)cyclohexyl]-3-fluoro-4-(4-fluorobutoxy)benzenesulfonamide], 6.8 nM.
In the case of `CCc1cc(-c2ccc(OCC(F)(F)F)nc2)ccc1S(=O)(=O)N[C@@H]1C[C@H](n2cnnc2C)CC(F)(F)C1` [Compound 2Cbe, N-[(1R,5S)-3,3-difluoro-5-(3-methyl-4H-1,2,4-triazol-4-yl)cyclohexyl]-2-ethyl-4-[6-(2,2,2-trifluoroethoxy)pyridin-3-yl]benzenesulfonamide] it was 0.2 nM; in that of `Cc1nncn1[C@@H]1CCC[C@H](NS(=O)(=O)c2ccc(-c3ccc(OCC(F)(F)F)nc3)c(F)c2)C1` [Compound 2Ff, 3-fluoro-N-[(1S,3R)-3-(3-methyl-4H-1,2,4-triazol-4-yl)cyclohexyl]-4-[6-(2,2,2-trifluoroethoxy)pyridin-3-yl]benzenesulfonamide], 1 nM; in that of `O=S(=O)(N[C@H]1CCC[C@@H](n2cnnc2)C1)c1cc(F)cc(F)c1` [Compound 2Ma, 3,5-difluoro-N-[(1S,3R)-3-(4H-1,2,4-triazol-4-yl)cyclohexyl]benzenesulfonamide], 2900 nM.
In the case of `Cc1nncn1[C@@H]1CCC[C@H](NS(=O)(=O)c2ccc(-c3noc(C4CC4)n3)cc2)C1` [Compound 2Nl, 4-(5-cyclopropyl-1,2,4-oxadiazol-3-yl)-N-[(1S,3R)-3-(3-methyl-4H-1,2,4-triazol-4-yl)cyclohexyl]benzenesulfonamide] it was 9.6 nM.
In turn, `O=S(=O)(N[C@H]1CCC[C@@H](n2cnnc2)C1)c1cc(-c2cccc3cnccc23)cc(C(F)(F)F)c1` [Compound 3Az, 3-isoquinolin-5-yl-N-[(1S,3R)-3-(4H-1,2,4-triazol-4-yl)cyclohexyl]-5-(trifluoromethyl)benzenesulfonamide] returned an IC50 of 10 nM.
In the case of `CCc1cc(-c2ncc(COC)s2)ccc1S(=O)(=O)N[C@H]1CCC[C@@H](n2cnnc2)C1` [Compound 2Aba, 2-ethyl-4-[5-(methoxymethyl)-1,3-thiazol-2-yl]-N-[(1S,3R)-3-(4H-1,2,4-triazol-4-yl)cyclohexyl]benzenesulfonamide], the IC50 stood at 41 nM.
